Where two headings read alike, the source gives them in different places.
Experiments:
GSK-3β = target: T1, GSK-3β (Homo sapiens, UniProt P49841); assay: GSK-3β inhibition (radiometric, GS 1 peptide); format: biochemical
T1 construct: purchased Sigma
Experimental: GSK-3β inhibition: The GSK-3 activity was determined by incubation of a mixture of GSK-3 enzyme (Sigma), a phosphate source and a GSK-3 substrate in the presence and in the absence of the corresponding test compound, and by measuring the GSK-3 activity of this mixture.
The reaction is quenched by addition of an aliquot of the reaction mixture in phosphocelullose p81 papers. These papers are washed three times with phosphoric acid 1% and the radioactivity incorporated to the GS 1 peptide is measured in a liquid scintillation counter.

N2A cells = assay: Cell cycle blockade; format: cell-based, mice; conditions: N2A cell cultures, Table 5
Experimental: In parallel, the potential interference of these compounds with the cell cycle was studied on N2A cells. The cell culture was maintained in a Dulbecco medium (DEMEM) with a 10% fethal bovine serum, glutamine (2 mM) and antibiotics.
The first four compounds of general formula (I) gathered in Table 3 were assayed in the described conditions and shown ability to inhibit the cell cycle at an inhibitor concentration comprised between 100 nM and 1 μM. The cellular blockade was initially observed at concentrations comprised between 100-200 nM and was totally effective at 1 μM.

[1] = GSK-3 enzyme (Sigma), 15 μM ATP, GS 1 peptide, Tables 3, 3a, 4, read-out: IC50
[2] = Tables 4a, 4b, read-out: GSK-3β IC50

T1 sequence (P49841 whole entry, species assumed): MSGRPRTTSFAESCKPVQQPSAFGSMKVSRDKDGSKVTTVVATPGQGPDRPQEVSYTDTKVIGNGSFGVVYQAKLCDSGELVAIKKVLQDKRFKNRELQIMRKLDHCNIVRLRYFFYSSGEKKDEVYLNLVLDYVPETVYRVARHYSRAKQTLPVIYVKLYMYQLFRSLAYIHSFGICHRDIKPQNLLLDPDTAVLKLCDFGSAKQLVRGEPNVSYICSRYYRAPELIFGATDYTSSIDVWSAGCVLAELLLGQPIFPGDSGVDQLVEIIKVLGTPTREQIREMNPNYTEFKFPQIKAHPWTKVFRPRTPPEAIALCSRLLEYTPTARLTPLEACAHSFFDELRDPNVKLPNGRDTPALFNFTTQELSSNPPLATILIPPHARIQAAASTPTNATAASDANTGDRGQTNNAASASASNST

With “3-(4-Ethyl-3-oxo-2-methyl-1,2,4-thiadiazolidin-5-ylidine)aminopyridine-1-oxide [Compound 23]” as the molecule, how does the IC50 (GSK-3β; [1]) read?
The IC50 was greater than 100 µM.

With “3-[5-(4-Ethyl-2-methyl-3-oxo)imino-1,2,4-thiadiazolidyl]-1-methyl-pyridinium iodide [Compound 24]” as the molecule, how does the IC50 (GSK-3β; [1]) read?
The IC50 was greater than 100 µM.

With “4-Ethyl-5-[imino-(1-methyl-piperidin-3-yl)]-2-methyl-1,2,4-thiadiazolidin-3-One [Compound 25]” as the molecule, how does the IC50 (GSK-3β; [1]) read?
The IC50 was greater than 100 µM.

With `Cn1sc(=O)n(Cc2ccccc2)c1=O` [Compound 1, 4-Benzyl-2-methyl-1,2,4-thiadiazolidine-3,5-dione] as the molecule, how does the IC50 (N2A cells; Mus musculus) read?
Its IC50 is 4 to 8 µM.

Which IC50 (GSK-3β; [1]) does the source give for `O=C1CCC(=O)C1` [Compound 1-A] here?
Its IC50 is greater than 100 µM.

For `O=C1C=CC(=O)C1` [Compound 1-B], which IC50 (GSK-3β; [1]) is on record?
The IC50 was 12 µM.

Which IC50 (GSK-3β; [1]) does the source give for `O=C1NC(=O)c2ccccc21` [Compound 1-F] here?
Its IC50 is greater than 100 µM.

Which IC50 (GSK-3β; [1]) does the source give for `CCn1c(=O)sn(C)c1=O` [Compound 2, 4-Ethyl-2-methyl-1,2,4-thiadiazolidine-3,5-dione] here?
Its IC50 is 5 µM.

And the IC50 (N2A cells; Mus musculus)?
Its IC50 is 40 to 100 µM.

For `O=C1CCC(=O)N1Cc1ccccc1` [Compound 2-E], which IC50 (GSK-3β; [1]) is on record?
Its IC50 is greater than 100 µM.

Which IC50 (GSK-3β; [1]) does the source give for `O=C1c2ccccc2C(=O)N1Cc1ccccc1` [Compound 2-F] here?
The IC50 was greater than 100 µM.

Which IC50 (GSK-3β; [1]) does the source give for `Cn1c(=O)n(-c2ccccc2)c(=O)n1C` [Compound 2-H] here?
The IC50 was greater than 100 µM.

With `CCCn1sc(=O)n(CC)c1=O` [Compound 3, 4-Ethyl-2-n-propyl-1,2,4-thiadiazolidine-3,5-dione] as the molecule, how does the IC50 (GSK-3β; [1]) read?
The IC50 was 10 µM.

And the IC50 (N2A cells; Mus musculus)?
The IC50 was 5 to 10 µM.

With `O=C(O)CN1C(=O)CSC1=S` [Compound 3-G, (4-oxo-2-thioxo-thiazolidin-3-yl)-acetic acid] as the molecule, how does the IC50 (GSK-3β; [1]) read?
Its IC50 is greater than 100 µM.

For `CCn1c(=O)sn(C2CCCCC2)c1=O` [Compound 4, 2-Cyclohexyl-4-ethyl-1,2,4-thiadiazolidine-3,5-dione], which IC50 (GSK-3β; [1]) is on record?
The IC50 was 10 µM.

What about the IC50 (N2A cells; Mus musculus) of the same molecule?
The IC50 was 6 to 9 µM.

For `O=C1C=CC(=O)N1CCc1ccccc1` [Compound 4-D, N-phenethylmaleimide], which IC50 (GSK-3β; [2]) is on record?
The IC50 was 2 µM.

Which results are given for `Cn1sc(=O)n(-c2ccccc2)c1=O` [Compound 5, 4-Phenyl-2-methyl-1,2,4-thiadiazolidin-3,5-dione]?
IC50 (GSK-3β; [1]): 2 µM; IC50 (N2A cells; Mus musculus): 4 to 7 µM

For `O=C1C=CC(=O)N1CCCc1ccccc1` [Compound 5-D, N-(3-phenylpropyl)maleimide], which melting point is on record?
The melting point was 79 to 80 °C.

Which IC50 (GSK-3β; [1]) does the source give for `O=C1CSC(=S)N1CCc1ccccc1` [Compound 5-G, 3-Phenethyl-2-thioxo-thiazolidin-4-One] here?
The IC50 was 35 µM.

With `CCOC(=O)Cn1c(=O)sn(C)c1=O` [Compound 6, 4-(Ethoxycarbonylmethyl)-2-methyl-1,2,4-thiadiazolidine-3,5-dione] as the molecule, how does the IC50 (GSK-3β; [1]) read?
Its IC50 is 5 µM.

And the IC50 (N2A cells; Mus musculus)?
The IC50 was 1 to 2 µM.

Which melting point does the source give for `O=C1C=CC(=O)N1CCCCCc1ccccc1` [Compound 6-D, N-(5-phenylpentyl)maleimide] here?
Its melting point is 49 to 51 °C.

Which IC50 (GSK-3β; [1]) does the source give for `O=C(CN1C(=O)CSC1=S)c1ccccc1` [Compound 6-G, 3-Phenacyl-2-thioxo-thiazolidin-4-One] here?
The IC50 was 50 µM.

With `COc1ccc(-n2c(=O)sn(C)c2=O)cc1` [Compound 7, 4-(4-Methoxyphenyl)-2-methyl-1,2,4-thiadiazolidine-3,5-dione] as the molecule, how does the IC50 (N2A cells; Mus musculus) read?
The IC50 was 1 to 2 µM.

With `COc1ccc(CN2C(=O)C=CC2=O)cc1` [Compound 7-D, N-(p-methoxybenzyl)maleimide] as the molecule, how does the IC50 (GSK-3β; [2]) read?
The IC50 was 2.5 µM.

For `NN1C(=O)CSC1=S` [Compound 7-G], which IC50 (GSK-3β; [2]) is on record?
The IC50 was greater than 100 µM.

Which IC50 (GSK-3β; [1]) does the source give for `CCn1sc(=O)n(Cc2ccccc2)c1=O` [Compound 8, 4-Benzyl-2-ethyl-1,2,4-thiadiazolidine-3,5-dione] here?
The IC50 was 7 µM.

And the IC50 (N2A cells; Mus musculus)?
The IC50 was 4 to 7 µM.

With `COc1ccc(CCN2C(=O)C=CC2=O)cc1` [Compound 8-D, N-(p-Methoxyphenethyl)maleimide] as the molecule, how does the melting point read?
The melting point was 79 to 81 °C.

Which IC50 (GSK-3β; [1]) does the source give for `CCn1c(=O)sn(C(C)C)c1=O` [Compound 9, 4-Ethyl-2-isopropyl-1,2,4-thiadiazolidin-3,5-dione] here?
Its IC50 is 35 µM.

Which IC50 (GSK-3β; [1]) does the source give for `CCn1sc(=O)n(Cc2ccccc2)c1=S` [Compound 10, 4-Benzyl-2-ethyl-5-oxo-1,2,4-thiadiazolidine-3-thione] here?
The IC50 was 6 µM.

Which IC50 (GSK-3β; [1]) does the source give for `O=c1sn(Cc2ccccc2)c(=S)n1Cc1ccccc1` [Compound 11, 2,4-Dibenzyl-5-oxo-thiadiazolidine-3-thione] here?
Its IC50 is 10 µM.

And the IC50 (N2A cells)?
Its IC50 is 1 to 2 µM.

Which IC50 (GSK-3β; [1]) does the source give for `O=c1sn(-c2ccccc2)c(=S)n1-c1ccccc1` [Compound 12, 2,4-diphenyl-5-oxo-thiadiazolidine-3-thione] here?
Its IC50 is 20 µM.

And the IC50 (N2A cells)?
The IC50 was 4 to 8 µM.

For `CCn1sc(=O)n(CC)c1=O` [Compound 13, 2,4-diethyl-5-oxo-1,2,4-thiadiazolidine-3,5-dione], which IC50 (GSK-3β; [1]) is on record?
Its IC50 is 20 µM.

For `Cc1ccc(-n2c(=O)sn(C)c2=O)cc1` [Compound 15, 4-(4-Methylphenyl)-2-methyl-1,2,4-thiadiazolidine-3,5-dione], which IC50 (GSK-3β; [1]) is on record?
The IC50 was 5 µM.

Which IC50 (GSK-3β; [1]) does the source give for `Cn1sc(=O)n(-c2ccc(Br)cc2)c1=O` [Compound 16, 4-(4-Bromophenyl)-2-methyl-1,2,4-thiadiazolidine-3,5-dione] here?
The IC50 was 3 µM.

Which IC50 (GSK-3β; [1]) does the source give for `Cn1sc(=O)n(-c2ccc(F)cc2)c1=O` [Compound 17, 4-(4-Fluorophenyl)-2-methyl-1,2,4-thiadiazolidine-3,5-dione] here?
Its IC50 is 4 µM.

For `Cn1sc(=O)n(-c2ccc(Cl)cc2)c1=O` [Compound 18, 4-(4-Chlorophenyl)-2-methyl-1,2,4-thiadiazolidine-3,5-dione], which IC50 (GSK-3β; [1]) is on record?
The IC50 was 4 µM.

Which IC50 (GSK-3β; [1]) does the source give for `O=C(c1ccccc1)n1sc(=O)n(Cc2ccccc2)c1=O` [Compound 31, 2-Benzoyl-4-benzyl-1,2,4-thiadiazolidine-3,5-dione] here?
The IC50 was 3 µM.

Which IC50 (GSK-3β; [1]) does the source give for `CCOC(=O)Cn1sc(=O)n(Cc2ccccc2)c1=O` [Compound 33, 4-Benzyl-2-(Ethoxycarbonylmethyl)-1,2,4-thiadiazolidine-3,5-dione] here?
Its IC50 is 4 µM.

For `CCn1sc(=NO)n(Cc2ccccc2)c1=O` [Compound 36, 4-Benzyl-2-ethyl-1,2,4-thiadiazolidine-3-one-5-oxime], which IC50 (GSK-3β; [1]) is on record?
The IC50 was 6 µM.

Which IC50 (GSK-3β; [1]) does the source give for `CCn1sc(=O)n(CCc2ccccc2)c1=O` [Compound 41, 2-Ethyl-4-phenethyl-1,2,4-thiadiazolidine-3,5-dione] here?
The IC50 was 8 µM.

For `O=c1[nH]sc(=O)n1Cc1ccccc1` [Compound 42, 4-Benzyl-1,2,4-thiadiazolidine-3,5-dione], which IC50 (GSK-3β; [1]) is on record?
The IC50 was 50 µM.

With `CCOC(=O)Cn1sc(=O)n(CC(=O)OCC)c1=O` [Compound 44, 4-(Ethoxycarbonylmethyl)-2-(ethoxycarbonylmethyl)-1,2,4-thiadiazolidine-3,5-dione] as the molecule, how does the IC50 (GSK-3β; [1]) read?
Its IC50 is 4 µM.

Which IC50 (GSK-3β; [1]) does the source give for `CCOC(=O)Cn1c(=O)sn(C)c1=O` [Compound 45, 4-(Ethoxycarbonylmethyl)-2-methyl-1,2,4-thiadiazolidine-3,5-dione] here?
The IC50 was 2 µM.

With `CCOC(=O)Cn1c(=O)sn(C(C)C)c1=O` [Compound 46, 4-(Ethoxycarbonylmethyl)-2-isopropyl-1,2,4-thiadiazolidine-3,5-dione] as the molecule, how does the IC50 (GSK-3β; [1]) read?
Its IC50 is 7 µM.

For `CCOC(=O)Cn1c(=O)sn(C(=O)c2ccccc2)c1=O` [Compound 47, 2-Benzoyl-4-(ethoxycarbonylmethyl)-1,2,4-thiadiazolidine-3,5-dione], which IC50 (GSK-3β; [1]) is on record?
The IC50 was 4 µM.

With `CCn1sc(=O)n(-c2ccc([N+](=O)[O-])cc2)c1=O` [Compound 49, 2-Ethyl-4-(4-nitrophenyl)-1,2,4-thiadiazolidine-3,5-dione] as the molecule, how does the IC50 (GSK-3β; [1]) read?
The IC50 was 8.5 µM.

For `CCn1sc(=NO)n(-c2ccccc2)c1=O` [Compound 50, 2-Ethyl-4-phenyl-1,2,4-thiadiazolidine-3-one-5-oxime], which IC50 (GSK-3β; [1]) is on record?
Its IC50 is 100 µM.

— patent publication US7666885B2, “Enzyme inhibitors” (Consejo Superior de Investigaciones Cientificas, priority 2000, dated 2010)
